Patent US20150037399A1, “NOVEL USE OF PIPOXOLAN AND ITS PHARMACEUTICAL COMPOSITION” (China Medical University, priority 2013, published 2015)

Experiments:
[1] = test system: PCNA-positive cells; assay: Carotid ligation model, PCNA antibody staining of the carotid artery; type: in vivo, ICR mice; conditions: mice
Method: Male ICR mice, weighing 20 to 25 g, were used as a carotidligation model. Fifteen mice were randomly assigned to 3 treatment groups, five mice for each group. All mice were fasted overnight with free access to water, then anesthetized with zoletil® (25 mg/kg i.p.). Carotid ligation was performed by a midline neck incision and the left common carotid artery exposed. The carotid artery was completely ligated just proximal to the carotid bifurcation, and the right carotid artery served as a non-injured control artery. The incision was closed after ligation, and the animals were allowed to recover. On the day of carotid ligation, mice were randomized into 3 treatment groups and anesthetized as described. Group 1 mice were treated with saline and groups 2 and 3 treated with pipoxolan (10 mg/kg and 30 mg/kg, respectively). Subsequent pipoxolan and saline treatments were given by gastric gavage on the second day after carotid ligation and once daily for 28 days. […] Images were digitized and analyzed with Image-Pro software. The areas of the lumen, internal elastic lamina (IEL), and external elastic lamina (EEL) were determined by computerized planimetry. The intima area was calculated by subtracting the luminal from the IEL area, and media area was determined by subtracting the IEL area from the EEL area. The ratio of intima to media area (I/M ratio) was calculated and analyzed. […]

[2] = test system: cleaved caspase-3 positive cells; assay: Immunohistochemical staining of cleaved caspase-3 in rat brain slices; type: in vivo, Sprague-Dawley (SD) rats; conditions: rat cortex
Method: Nine rats were randomly assigned into 3 treatment groups, three rats for each group. Group 1 rats were treated with saline and groups 2 and 3 treated with pipoxolan (10 mg/kg and 30 mg/kg, respectively). Focal ischemia was induced by occlusion of both CCA and the right MCA as previously described. Twenty four hours after focal ischemia, rats were deeply anesthetized by intraperitoneal injection of 50 mg/kg of zoletil® followed by intracardiac perfusion with 200 ml of 0.9% saline, followed by 4% paraformaldehyde in 0.1 M PBS and animals were decapitated. The percentage of positive TUNEL staining cells within areas of the cortex was estimated. Rat brain slices were incubated with anti-caspase-3 antibodies (GTX73093, GeneTex Inc., USA) overnight and immunohistochemical labeled using a NovoLink Polymer Detection System Kit (Leica Microsystems Inc., Newcastle Upon Tyne, UK). The percentage of positive caspase-3 staining cells within the cortex was estimated based on the average number of cells in a defined area.

[3] = test system: p-ERK; assay: Western blot of p-ERK in PDGF-BB-stimulated VSMCs; type: cell-based
Method: (§1) The role of matrix metalloproteinase-2/9 (MMP-2/9) and the Ras/MEK/ERK signaling pathways were used to evaluate the effect of pipoxolan on VSMCs migration. The protein expression levels were determined by Western blot analysis. Each vertical bars represented mean±S.E. **p<0.01 and ***p<0.001 compared with control group (n=6 in each group).

[4] = test system: Ras; assay: Western blot of Ras in PDGF-BB-stimulated VSMCs; type: cell-based
Method: as §1

[5] = test system: MEK; assay: Western blot of MEK in PDGF-BB-stimulated VSMCs; type: cell-based
Method: as §1

[6] = test system: neurological deficits in ischemic rats; assay: Evaluation of neurological deficits after ischemia-reperfusion; type: in vivo, Sprague-Dawley (SD) rats; conditions: 24 hr after reperfusion; for neurological deficits (score 0-5): mean±SE
Method: Focal ischemia was induced by occlusion of both common carotid arteries (CCA) and the right middle cerebral artery (MCA). Eighteen rats were randomly assigned to 3 treatment groups, six rats for each group. Group 1 rats were treated with saline and groups 2 and 3 treated with pipoxolan (10 mg/kg and 30 mg/kg, respectively). Rats were fasted overnight with free access to water. Pipoxolan (10, 30 mg/kg) was orally administered 1 hr prior to transient focal cerebral ischemia-reperfusion. Animals then were anesthetized with zoletil® (25 mg/kg i.p.), and the skull was exposed, and a small burr hole was produced over the MCA. Beneath the right MCA, proximal to the major bifurcation of the right MCA, distal to the lenticulostriate arteries, and rostral to the rhinal fissure, a 10-0 nylon monofilament was placed. The artery then was lifted and the nylon filament rotated clockwise. Both CCA were then occluded using a microvascular clip. After 90 minutes of occlusion, reperfusion was established by removing the microvascular clips from the CCA, rotating the nylon monofilament counterclockwise and removing it from beneath the MCA. After 24 hr, all rats were alive and neurobehavioral deficits evaluation and infarct assessment were performed Twenty four hours following reperfusion, neurological function of rats was assessed. The degree of neurological deficits were divided 0-5 (higher score is for more severe neurological deficits) as follows: 0=no neurological deficits, 1=failure to extend left forepaw fully, 2=circling to the left, 3=falling to left, 4=no spontaneous walking with a depressed level of consciousness, and 5=death. Neurological evaluation was done by an observer who was blind to the treatment conditions of the animals. After completion of the neurobehavioral evaluation, rats were deeply anesthetized by an intraperitoneal injection of zoletil® (50 mg/kg) followed by intracardiac perfusion with 200 ml of freezing PBS and animals were then decapitated. The brain was removed and sliced in 2-mm sections using a rodent brain matrix slicer. The sections were stained with 2% 2,3,5-triphenyltetrazoliumchloride (TTC) for 10 min at 37° C. and fixed in 10% formalin. The image of each section was digitized and the infarct area was determined morphometrically using Image-Pro Plus 6.0 (Media Cybernetics, Md., USA).

Cl.O=C1OC(CCN2CCCCC2)OC1(c1ccccc1)c1ccccc1 (centres unmarked) [pipoxolan, 5,5-diphenyl-2-(2-piperidin-1-ylethyl)-1,3-dioxolan-4-one hydrochloride]
percent inhibition of PCNA-positive cells ([1]; 10 mg/kg p.o. once daily for 28 days after carotid ligation): 42.11%
percent inhibition of PCNA-positive cells ([1]; 30 mg/kg p.o. once daily for 28 days after carotid ligation): 62.40%
reduction of cleaved caspase 3 positive cells ([2]; 10 mg/kg): 37.18%
reduction of cleaved caspase 3 positive cells ([2]; 30 mg/kg): 63.44%
reduction of p-ERK protein level ([3]; 5 μM): 50.33%
reduction of p-ERK protein level ([3]; 10 μM): 51.67%
reduction of p-ERK protein level ([3]; 15 μM): 75%
reduction of Ras protein level ([4]; 5 μM): 21%
reduction of Ras protein level ([4]; 10 μM): 24.75%
reduction of Ras protein level ([4]; 15 μM): 24%
reduction of MEK protein level ([5]; 5 μM): 21.67%
reduction of MEK protein level ([5]; 10 μM): 21%
reduction of MEK protein level ([5]; 15 μM): 26.67%
reduction of neurological deficits ([6]; 10 mg/kg p.o.): 31.25%
neurological deficits (score 0-5) ([6]; 10 mg/kg p.o.): 2.20±0.20
reduction of neurological deficits ([6]; 30 mg/kg p.o.): 46.88%
neurological deficits (score 0-5) ([6]; 30 mg/kg p.o.): 1.7±0.21
